Test results taken from patent publication US6432881B1 (dated 2002).

**Q.** Which melting point does the source give for `Cn1nccc1OCc1c(S(C)(=O)=O)ccc(C(=O)C2C(=O)CC(C)(C)CC2=O)c1Cl` (hydrate or solvate) here?
**A.** 82 °C
